Key:
C57BL/6J mice [1] = assay: Y-maze test (spontaneous alternation behavior) after bilateral common carotid arteries occlusion; type: in vivo; settings: oral, 7 days, FIG. 1
Procedure: (§1) Experimental Example: 10-week-old male C57BL/6J mice (CLEA Japan, Inc. approximately 25 g of average body weight per mouse) were preliminarily acclimated for 1 week, and provided for experiments. Citrulline and glutathione were obtained from KYOWA HAKKO BIO CO., LTD.
(§2) C57BL/6J mice were divided into a sham-operation group (Group 1) and a bilateral common carotid arteries occlusion group, which was performed under halothane anesthesia for 20 minutes. One day after reperfusion, the bilateral common carotid arteries occlusion group was further divided into a distilled water-treated group (Group 2), a low-dose citrulline-treated group (40 mg/kg: Group 3), a low-dose glutathione-treated group (40 mg/kg: Group 4), a high-dose citrulline-treated group (100 mg/kg: Group 5), a high-dose glutathione-treated group (100 mg/kg: Group 6), and a combination treatment group of a low dose of citrulline and a low dose of glutathione (each 40 mg/kg: Group 7). Each sample was orally administered for 12 days. One week after starting administration, learning memory-improving effects were examined by a Y-maze test, a passive avoidance test, and a novel object recognition test. After evaluating learning memory functions, the hippocampus was removed and viability of hippocampal nerve cells was evaluated.
In the Y-maze test, a Y-maze apparatus with three arms (50×16×32 cm) was used. Mice were placed at any one arm of the Y-maze and were allowed to explore freely through the maze for 8 minutes. The sequence of arm entries was recorded. The number of entries into each arm was counted during the measurement time, which was defined as the total number of entries. Of them, the successive entry into the three different arms was examined, and this number was defined as the spontaneous alternation behavior number. The spontaneous alternation behavior number was divided by (the total number of arm entries minus two), and then multiplied by 100, which was defined as the spontaneous alternation behavior rate (Alternation) and used as an index for spontaneous alternation behavior.

C57BL/6J mice [2] = assay: Passive avoidance test after bilateral common carotid arteries occlusion; type: in vivo; settings: oral, 7 days, FIG. 2
Procedure: as §1, §2
The passive avoidance test was performed using a box consisting of dark (25×25×25 cm) and light compartments (14×10×25 cm) and being equipped with an electrical stimulation apparatus at the bottom of the dark compartment. During training, as soon as the mouse entered the dark compartment from the light compartment, the door was closed, and an electrical stimulation (0.3 mA, for 2 seconds) was delivered. Twenty four hours after training, the mouse was placed again in the light compartment, and the latency time spent in the light compartment was recorded with a maximum latency of 300 seconds.

C57BL/6J mice [3] = assay: Novel object recognition test after bilateral common carotid arteries occlusion; type: in vivo; settings: oral, 7 days, FIG. 3
Procedure: as §1, §2
The novel object recognition test was performed after mice were individually acclimated to the open field apparatus (35×25×35 cm) for 2 days. During training, mice were allowed to explore freely for 10 minutes in an apparatus where two identical objects were symmetrically placed. After 1 hour, one object was replaced by a novel object, and mice were allowed to explore freely for 5 minutes. Object exploration was defined as standing on the objects, touching the object with the nose, or sniffing the object within 1 cm from the object. A ratio of the frequency of exploring the familiar or novel object over the total exploration frequency was calculated, and used as an index for visual recognition memory.

hippocampal nerve cells = assay: Evaluation of viability of hippocampal nerve cells after bilateral common carotid arteries occlusion; type: in vivo, mice; settings: oral, 12 days, CA1 pyramidal cell layer, FIG. 4
Procedure: as §1, §2
Twelve days after bilateral occlusion of the common carotid arteries, mice were anesthetized with pentobarbital sodium, and perfused with ice-cold phosphate buffer (PBS, pH 7.4) until the blood in the body was completely removed. Immediately, mice were perfused with a fixative solution containing 4% paraformaldehyde. The brain tissues were fixed at 4° C. for 24 hours, and coronal sections having a thickness of 50 μm were prepared. Serial sections containing the hippocampus were stained with propidium iodide (PI, 5 μmol/L) dissolved in PBS and observed under a fluorescent microscope. Surviving and non-surviving nerve cells in the CA1 pyramidal cell layer of the hippocampus were counted at 1.4 to 1.8 mm posterior to bregma, and cells with PI-positive nuclei and typical morphological characteristics were defined as […]. The cell viability was calculated from a ratio to the average number of surviving nerve cells in Group 1.

[4] = high dose 100 mg/kg alone (Group 5 citrulline, Group 6 glutathione)
[5] = low dose 40 mg/kg alone (Group 3 citrulline, Group 4 glutathione), vs distilled water Group 2
[6] = low dose 40 mg/kg alone (Group 3 citrulline, Group 4 glutathione), vs Group 2
[7] = low dose 40 mg/kg alone (Group 3 citrulline, Group 4 glutathione)

Compound | spontaneous alternation behavior rate (Alternation) (C57BL/6J mice [1]; [4]) | spontaneous alternation behavior rate (Alternation) (C57BL/6J mice [1]; [5]) | time spent in the light compartment (Latency time) (C57BL/6J mice [2]; [4]) | time spent in the light compartment (Latency time) (C57BL/6J mice [2]; [6]) | frequency of exploring the novel object (C57BL/6J mice [3]; [4]) | frequency of exploring the novel object (C57BL/6J mice [3]; [7]) | viability of hippocampal nerve cells (hippocampal nerve cells; [4]) | viability of hippocampal nerve cells (hippocampal nerve cells; [6])
NC(=O)NCCC[C@H](N)C(=O)O [citrulline] | remarkably improved effect of memory behavior | Alternation cannot be improved | remarkably improved effect of memory behavior | latency time cannot be improved | remarkably improved effect of memory behavior | frequency of exploring the novel object cannot be increased | nerve cell-protecting effect | viability of hippocampal nerve cells cannot be improved
N[C@@H](CCC(=O)N[C@@H](CS)C(=O)NCC(=O)O)C(=O)O [glutathione] | remarkably improved effect of memory behavior | Alternation cannot be improved | remarkably improved effect of memory behavior | latency time cannot be improved | remarkably improved effect of memory behavior | frequency of exploring the novel object cannot be increased | nerve cell-protecting effect | viability of hippocampal nerve cells cannot be improved

Reference: US10369186B2, “Method of treating decline in brain function comprising coadministration of citrulline and glutathione” (KYOWA HAKKO BIO CO., LTD., priority 2012, dated 2019)
